Test results taken from US20240197682A1, “METHOD FOR TREATING NEUROLOGICAL DISEASES USING SUPRAMOLECULE POLYMER THERAPEUTICS” (The Regents of the University of California, priority 2022, published 2024).
Read-outs that look alike come from different tables or passages of the source.

What was measured:
[1] = molecular target: T1, YFP-tagged full length 0N4R-Tau P301S aggregates seeded by 416-AD11A lysate (T24 cells) (Homo sapiens, UniProt P10636, P618S); assay: Tau-AD high throughput screening (counter screen) in T24 cells; type: cell-based; conditions: T24 cells transfected with 416-AD11A lysate
T1 construct: C-terminally YFP-tagged full length 0N4R-Tau carrying a P301S mutation; expressed in transfected cells
Protocol: A fragment of the Middle Tempral Gyrus (MTG) from Alzheimer's Disease (AD) patient 2217 was resuspended in 9 volumes of PBS (ml/g of brain) and homogenized 3×12 seconds using a probe homogenizer (Thomas Scientific) with disposable Omni Tip plastic homogenizing probes (Thomas Scinetific Cat No 3409Y77) to generate a 10% brain homogenate (10% AD11-BH). The 10% AD11-BH was clarified of insoluble debris by centrifugation at 800×g for 5 minutes. The resulting supernatant was collected and the protein concentration of this clarified BH (AD11-CBH) was determined by bicinchoninic acid assay (BCA) (Thermo Fisher Cat No. 23227). HEK293 cells stably expressing a C-terminally Clover-tagged truncated 4R-Tau^243-382 transgene containing the P301L and V337M mutations and a C-terminally Ruby-tagged truncated 3R-Tau^243-382 transgene containing the L266V and V337M mutations (128/139 cells) were transfected with the AD11-CBH using lipofectamine 2000 (LF2K) (Thermo Fisher Cat No. 11668500). Briefly, 0.32 μl of LF2K were diluted in 5 μl Opti-MEM (Thermo Scientific Cat No 31985070) per well of a 384-well plate and incubated for 5 min at room temperature (RT). This mixture was added to 0.32 μg of AD11-CBH diluted in 5 μl of PBS per well of a 384-well plate and vortex briefly. The transfection mixture was incubated at room temperature for 90 min. The transfection complexes were subsequently added to a single well of a 384-well plate containing 3500 128/139 cells. After 3 days the cells were harvested, counted and plated at a density of 1 cell/well in a 96-well plate. A clonal cell line containing Clover and Ruby positive Tau aggregates was selected and termed 416-AD11A cells. Following the expansion of these 416-AD11A cells, a cell lysate was prepared by freeze/thaw. The cells from a confluent T175 flask were harvested in 1 ml of PBS containing 1× protease inhibitor cocktail by scraping. The cell suspension was subjected to 4 cycles of freezing in liquid nitrogen for 5 minutes followed by thawing at 37° C. for 5 minutes. The resulting cell lysate was centrifuged at 2000 RPM for 10 minutes to remove the cell debris and the protein concentration of the resulting 416-AD11A lysate was determined by BCA assay and aliquots frozen for future use.
HEK293 cells stably expressing C-terminally YFP-tagged full length 0N4R-Tau carrying a P301S mutation (T24 cells) are plated at a density of 4000 cells per well of a 384-well black walled, clear bottom plate (Greiner Cat No 5678-1091Q) in 60 μl of complete DMEM (DMEM (Corning Cat No 10-013-CV), 10% FBS (VWR Cat No 97068-085, 0.5% Penicilin/streptomycin (Gibco Cat No 15140-122)) containing 0.1 μg/ml Hoechst Dye (Thermo Scientific Cat No H3570). Transfection complexes are prepared by diluting 0.15 μg of 416-AD11A lysate or HEK lysate in 5 μl of PBS per well to be transfected and 0.15 μl of Lipofectamine 2000 (LF2K) (ThermoFisher Cat No 11668500) in 5 μl of Opti-MEM per well to be transfected in separate tubes. The pre-diluted 416-AD11A or HEK lysates and LF2K are subsequently mixed and allowed to incubate for 90 minutes at RT. A 10 μl aliquot of the 416-AD11A or HEK transfection complexes is added to the appropriate wells of the 384-well plate containing the T24 cells using the Bravo liquid handling platform (Agilent). Wells A23-P24 of the 384-well plate are transfected with HEK lysate to act as a reference point for spontaneous aggregation of 0N4R^P301S and for transfection related toxicity. The dilution of test compounds is performed using the Bravo liquid handling platform (Agilent). The control is DMSO in the absence of any test compound. Briefly, 1 μl of each test compound (5 mM stock) in the 384-well test plate was transferred to a 384-well plate (Greiner Cat No 781280) containing 61.5 μl of complete DMEM to generate a working stock of compounds at 80 μM. […]

[2] = Parallel Artificial Membrane Permeability Assay (PAMPA); type: in vitro ADME; conditions: for Papp at 4 hr, 200 uM: PAMPA, read-out: PAMPA: P_app; for PAMPA: P_app: 200 uM test compound, 4 hr
Protocol: 5 uL of 1% lecithin (VWR 0579) dissolved in n-dodecane (Sigma Aldrich D221104) was applied to each well of a MultiScreen IP PAMPA filter plate (Millipore MAIPSWU10) and allowed to equilibrate for 5 minutes. 300 uL of PBS was added to the acceptor plate and 150 uL of 200 uM test compound dissolved in PBS and 30% ethanol was added to the donor wells before incubating the donor plate in the acceptor plate for 4 hr at 500 rpm. 100 uL was sampled from the donor and acceptor wells and the concentrations were measured by liquid chromatography-mass spectrometry (SCIEX 4500) or UV-VIS plate reader (BMG).

tau fibrils = tau fibrils (Homo sapiens, UniProt P10636); conditions: cited from earlier work
Sequence of tau fibrils (P10636 1-441 isoform P10636-8): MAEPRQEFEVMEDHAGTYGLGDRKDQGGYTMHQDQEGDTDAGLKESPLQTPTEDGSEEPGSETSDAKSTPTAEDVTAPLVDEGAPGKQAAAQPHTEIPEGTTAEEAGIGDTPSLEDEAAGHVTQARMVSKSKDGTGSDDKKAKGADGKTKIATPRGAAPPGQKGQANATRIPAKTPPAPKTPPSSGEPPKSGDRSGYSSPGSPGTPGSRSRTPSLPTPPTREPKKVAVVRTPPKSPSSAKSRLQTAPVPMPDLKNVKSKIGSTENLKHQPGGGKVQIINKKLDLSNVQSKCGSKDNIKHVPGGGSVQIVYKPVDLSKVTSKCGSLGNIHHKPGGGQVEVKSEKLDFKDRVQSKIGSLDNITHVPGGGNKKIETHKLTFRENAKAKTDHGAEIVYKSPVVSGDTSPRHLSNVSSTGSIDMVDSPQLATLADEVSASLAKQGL

T1 sequence (P10636 1-383 isoform P10636-6 P243S): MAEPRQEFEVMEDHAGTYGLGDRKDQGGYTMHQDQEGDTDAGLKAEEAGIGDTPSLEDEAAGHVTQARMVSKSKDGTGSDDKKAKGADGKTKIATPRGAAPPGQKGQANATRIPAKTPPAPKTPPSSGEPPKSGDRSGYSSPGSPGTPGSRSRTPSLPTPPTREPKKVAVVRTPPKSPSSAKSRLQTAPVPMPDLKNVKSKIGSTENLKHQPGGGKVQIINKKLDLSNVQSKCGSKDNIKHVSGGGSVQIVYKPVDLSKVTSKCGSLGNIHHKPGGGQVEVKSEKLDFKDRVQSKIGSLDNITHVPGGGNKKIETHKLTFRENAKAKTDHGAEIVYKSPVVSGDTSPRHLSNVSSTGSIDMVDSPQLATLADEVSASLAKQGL

Row | Structure (SMILES) | AD Tau Aggregates (% control) [1] | Papp at 4 hr, 200 uM ([2]; pH 5.0, 200 uM test compound) | PAMPA: P_app ([2]; pH 7.4) | PAMPA: P_app ([2]; pH 5.0) | Papp at 4 hr, 200 uM ([2]; pH 7.4, 200 uM test compound) | IC50 (tau fibrils; GTP-1, read-out: measured IC50) | Kd (tau fibrils; tau PET tracer GTP-1, estimated Kd)
1 | CNC(=O)c1ncc2c(n1)c(-c1ccc(Cl)cc1)nn2-c1ccnc(C(C)(F)F)n1 [Compound 288, 3-(4-chlorophenyl)-1-[2-(1,1-difluoroethyl)pyrimidin-4-yl]-N-methyl-pyrazolo[4,3-d]pyrimidine-5-carboxamide] | 98 % control | > 50 ×10⁻⁶ cm/s | >50 ×10e−6 cm/sec |  |  |  | 
2 | Cc1ccnn1-c1nc(-n2cc3ccn(C(F)(F)F)c3nc2=O)c(-c2ccc(F)cc2)o1 [Compound 240] | 95 % control |  | 2.41 ×10e−6 cm/sec |  |  |  | 
3 | CCC(=O)Nc1ncc2c(-c3ccccc3)nn(Cc3ccc(OC)cc3)c2n1 [Compound 269] | 100 % control |  | 26.7 ×10e−6 cm/sec | 19.1 ×10e−6 cm/sec |  |  | 
4 | CC(=O)Nc1ncc2c(-c3ccccc3)nn(Cc3ccncc3)c2n1 [Compound 279] | 92 % control |  | >50 ×10e−6 cm/sec | 44.7 ×10e−6 cm/sec |  |  | 
5 | CC(=O)Nc1ncc2c(-c3ccccc3)nn(CC3CCCCC3)c2n1 [Compound 280] | 90 % control |  | 19.5 ×10e−6 cm/sec | 19.5 ×10e−6 cm/sec |  |  | 
6 | CNC(=O)c1ncc2c(-c3ccccc3)nn(-c3ccc(F)cc3)c2n1 [Compound 246] | 120 % control |  | >50 ×10e−6 cm/sec | >50 ×10e−6 cm/sec |  |  | 
7 | O=C(Cn1cc(-c2ccoc2)c(=O)c2ccc(N3CCCC3)cc21)Nc1ccccc1C(F)(F)F [Compound 149, 2-[3-(furan-3-yl)-4-oxo-7-(pyrrolidin-1-yl)-1,4-dihydroquinolin-1-yl]-N-[2-(trifluoromethyl)phenyl]acetamide] | 100 % control | 16.9 ×10⁻⁶ cm/s |  |  | 11.2 ×10⁻⁶ cm/s |  | 
8 | O=c1nc2c(ccn2C(F)(F)F)cn1-c1nc(N2Cc3ccccc3C2)oc1-c1ccc(F)cc1 [Compound 242] | 99 % control |  | 5.72 ×10e−6 cm/sec |  |  |  | 
9 | CNC(=O)c1ncc2c(C#Cc3ccccc3)nn(-c3ccc(OC(F)F)cc3)c2n1 [Compound 290, 1-(4-(difluoromethoxy)phenyl)-N-methyl-3-(phenylethynyl)-1H-pyrazolo[3,4-d]pyrimidine-6-carboxamide] | 95 % control | 16.5 ×10⁻⁶ cm/s |  |  | 39.3 ×10⁻⁶ cm/s |  | 
10 | FCCC1CCN(c2ccn3c(n2)nc2ccccc23)CC1 [GTP-1] |  |  |  |  |  | 22 nM | 11 nM
11 | CC(=O)Nc1ncc2c(-c3ccccc3)nn(Cc3cncc(F)c3)c2n1 [Compound 267] | 91 % control |  | 5.98 ×10e−6 cm/sec |  |  |  | 
12 | Cc1ccn(-c2nc(-n3cc4ccn(C(F)(F)F)c4nc3=O)c(-c3ccc(F)cc3)o2)n1 [Compound 241] | 98 % control |  | 1.36 ×10e−6 cm/sec |  |  |  | 
13 | CNC(=O)c1ncc2c(-c3cc4ccccc4cn3)nn(Cc3ccccc3)c2n1 [Compound 256, 1-benzyl-3-(isoquinolin-3-yl)-N-methyl-1H-pyrazolo[3,4-d]pyrimidine-6-carboxamide] | 100 % control | > 50 ×10⁻⁶ cm/s | >50 ×10e−6 cm/sec |  |  |  | 
14 | CNC(=O)c1ncc2c(-c3ccccc3Cl)nn(-c3ccc(F)cc3)c2n1 [Compound 244] | 100 % control |  | 45 ×10e−6 cm/sec | >50 ×10e−6 cm/sec |  |  | 
15 | CC(=O)Nc1ncc2c(-c3ccccc3C)nn(Cc3ccccc3)c2n1 [Compound 266] | 98 % control |  | >50 ×10e−6 cm/sec | >50 ×10e−6 cm/sec |  |  | 
16 | COC(=O)Nc1ncc2c(-c3ccccc3)nn(-c3ccccc3)c2n1 [Compound 274] | 94 % control |  | 6.3 ×10e−6 cm/sec | 4.6 ×10e−6 cm/sec |  |  | 
17 | CNC(=O)c1ncc2c(-c3ccccc3)nn(Cc3ccccc3)c2n1 [Compound 248] | 95 % control |  | >50 ×10e−6 cm/sec | 46.6 ×10e−6 cm/sec |  |  | 
